Read-outs that look alike come from different tables or passages of the source.
How the values were obtained:
[1] = tested on: HIV clinical isolated, characterised by mutations in the RT gene inducing geno-phenotypic resistance to AZT; experiment: p24 production susceptibility test (ACTG protocol), Table 1; format: cell-based, HIV-1; conditions: for EC50: Human immunodeficiency virus 1, PBMC; for S.I. HCQ: I.C.50/E.C.50; for Fen. HCQ (fold): ratio to HIV-IIIB
Excerpt: (§1) For the phenotype of the nucleosidic, non-nucleosidic and proteases inhibitors was utilised a method which consider the use of human PBMC and the protocol standardised by the AIDS Clinical Trials Group, after verifying the genotype by sequence analysis.
(§2) In order to assay in vitro the susceptibility to chloroquine and hydroxychloroquine of the viral strains, it was used the protocol of the ACTG which is characterised by the measure, of the production of antigen p24 in strongly infected cells.
(§3) The susceptibility of the viral strains to chemotherapics was determined in cell cultures, prepared in 96 wells microplates, using, for the infection, 0.1 MOI.
(§4) The supernatant of the infected cultures (either in absence or in presence of different concentrations of chemotherapic) were tested for the production of p24 after 7 days, using an ELISA test which is commercially available.
(§5) The concentrations of chloroquine and hydroxychloroquine tested ranged from 0.5 to 15 uM. At the same time non-infected cells were incubated with concentrations of chloroquine and hydroxychloroquine ranging from 0 to 50 uM to evaluate the toxicity of the compound.
(§6) After 4 day from the infection, half the cellular medium was replaced with a medium containing the corresponding dilution of chloroquine and hydroxychloroquine. The percentage of inhibition of the HIV replication, induced by chloroquine and hydroxychloroquine, was determined, after 7 day from the infection, comparing the levels of p24 of this cultures and that of the control, infected and not treated with chloroquine and hydroxychloroquine.
(§7) Therefore, the E.C.50 of chloroquine and hydroxychloroquine expresses the concentration of chemotherapic that inhibits the 50% of production of p24 and the values were calculated using linear and non linear regression analysis (the significativity for the non linear regression was R^2>0.95).
(§8) In the same experimental conditions and in the same day, but with similar concentrations of chloroquine and hydroxychloroquine, it was evaluated the vitality of the infect cell cultures, and this was expressed as I.C.50.
(§9) I.C.50 (Inhibitory Concentration) indicates the concentration of the chemotherapic agent inhibiting the vitality of the cell cultures at a rate of 50%, when there is not infection.

[2] = tested on: HIV-1 strains geno-phenotypically resistant to EFV; experiment: p24 production susceptibility test, Table 7, MT-2 cells; format: cell-based; conditions: for EC50: Human immunodeficiency virus 1, MT2, MT-2, read-out: E.C.50 HCQ; for S.I. HCQ / Fen. HCQ (fold): MT-2; for S.I. HCQ: I.C.50/E.C.50; for Fen. HCQ (fold): ratio to HIV-IIIB
Excerpt: as §1, §2, §3, §4, §5, §6, §7, §8, §9

[3] = tested on: HIV-1 clinical isolated, characterised by mutations in the RT gene inducing geno-phenotypic resistance to d4T; experiment: p24 production susceptibility test (ACTG protocol), Table 4; format: cell-based; conditions: for EC50: Human immunodeficiency virus 1, PBMC, read-out: E.C.50 HCQ; for S.I. HCQ / Fen. HCQ (fold): PBMC; for S.I. HCQ: I.C.50/E.C.50; for Fen. HCQ (fold): ratio to HIV-IIIB
Excerpt: as §1, §2, §3, §4, §5, §6, §7, §8, §9

[4] = tested on: HIV-1 clinical isolated, characterised by mutations in the protease gene inducing geno-phenotypic resistance to IDV; experiment: p24 production susceptibility test (ACTG protocol), Table 9; format: cell-based; conditions: for EC50: Human immunodeficiency virus 1, PBMC; for S.I. HCQ: I.C.50/E.C.50; for Fen. HCQ (fold): ratio to HIV-IIIB
Excerpt: as §1, §2, §3, §4, §5, §6, §7, §8, §9

[5] = tested on: viruses resistant to both reverse transcriptase and protease inhibitors; experiment: p24 production susceptibility test, summary for resistant viruses; format: cell-based, HIV-1; conditions: Human immunodeficiency virus 1, range
Procedure: as §2, §3
The supernatant of the infected cultures (either in absence or in presence of different concentrations of chemotherapic) were tested for the production of p24 after 7 days, using an ELISA test which is commercially available. […]
as §6, §7

[6] = tested on: HIV-1 clinical isolated, characterised by mutations in the RT gene inducing geno-phenotypic resistance to ABC; experiment: p24 production susceptibility test (ACTG protocol), Table 5; format: cell-based; conditions: for EC50: Human immunodeficiency virus 1, PBMC, read-out: E.C.50 HCQ; for S.I. HCQ / Fen. HCQ (fold): PBMC; for S.I. HCQ: I.C.50/E.C.50; for Fen. HCQ (fold): ratio to HIV-IIIB
Excerpt: as §1, §2, §3, §4, §5, §6, §7, §8, §9

[7] = PBMC, Gen. D67N K70R T215F K219Q
[8] = PBMC, Gen. D 67 Ns K 70N T215F K219Q
[9] = PBMC, Gen. M41I M184V L210W R221K T215Y
[10] = PBMC, Gen. M41L D67N K70RM 184V T215F
[11] = PBMC, Gen. M41LD 76N K70R T215Y
[12] = Gen. K65R F77L Y115F Q151M M184V
[13] = PBMC, Gen. K20R E35D M36I I54V V82T
[14] = Gen. K65R S68G F77L Y115F Q151M M184V
[15] = Gen. M41L D67N M184V L210W T215Y

Work on `CCN(CCO)CCCC(C)Nc1ccnc2cc(Cl)ccc12` (stereo not shown) [HCQ, hydroxychloroquine] yielded an EC50 ([1]; PBMC, Gen. D67N K70R T215F K219Q, read-out: E:C.50 HCQ) of 2 µM, an EC50 ([1]; PBMC, Gen. D 67 Ns K 70N T215F K219Q, read-out: E:C.50 HCQ) of 2.5 µM and an EC50 ([1]; PBMC, Gen. K70R T215F K219Q, read-out: E:C.50 HCQ) of 2 µM. It also gave an EC50 ([1]; PBMC, Gen. M41I M184V L210W R221K T215Y, read-out: E:C.50 HCQ) of 1 µM, an EC50 ([1]; PBMC, Gen. M41I T215Y, read-out: E:C.50 HCQ) of 2.5 µM and an EC50 ([1]; PBMC, Gen. M41L D67N K70RM 184V T215F, read-out: E:C.50 HCQ) of 2.5 µM. The EC50 ([1]; read-out: E:C.50 HCQ (uM), PBMC, Gen. M41LD 76N K70R T215Y) was 2.8 µM, the “S.I. HCQ” value [1, 7] was 4 and the “Fen. HCQ (fold)” value [1, 7] was 1.1X fold. For the same molecule, the “S.I. HCQ” value [1, 8] was 3.6, the “Fen. HCQ (fold)” value [1, 8] was 1.6X fold and the “S.I. HCQ” value ([1]; PBMC, Gen. K70R T215F K219Q) was 5. For the same molecule, the “Fen. HCQ (fold)” value ([1]; PBMC, Gen. K70R T215F K219Q) was 1.1X fold, the “S.I. HCQ” value [1, 9] was 7 and the “Fen. HCQ (fold)” value [1, 9] was 0.5X fold. For the same molecule, the “S.I. HCQ” value ([1]; PBMC, Gen. M41I T215Y) was 4.5, the “Fen. HCQ (fold)” value ([1]; PBMC, Gen. M41I T215Y) was 1.3X fold and the “S.I. HCQ” value [1, 10] was 3.6. The “Fen. HCQ (fold)” value [1, 10] was 1.3X fold, the “S.I. HCQ” value [1, 11] was 3.4 and the “Fen. HCQ (fold)” value [1, 11] was 1.5X fold. For the same molecule, the EC50 ([2]; Gen. K101D K103N) was 2500 nM, the EC50 ([2]; Gen. K103N V108D) was 2800 nM and the EC50 ([2]; Gen. K103N Y181C) was 2500 nM. It also gave an EC50 ([2]; Gen. K103N) of 2800 nM, an EC50 ([2]; Gen. L100I K103N) of 3200 nM and an EC50 ([2]; Gen. Y181C) of 1500 nM. The “S.I. HCQ” value ([2]; Gen. K101D K103N) was 8.8, the “Fen. HCQ (fold)” value ([2]; Gen. K101D K103N) was 1.6X fold and the “S.I. HCQ” value ([2]; Gen. K103N V108D) was 7.8. The “Fen. HCQ (fold)” value ([2]; Gen. K103N V108D) was 1.8X fold, the “S.I. HCQ” value ([2]; Gen. K103N Y181C) was 8.5 and the “Fen. HCQ (fold)” value ([2]; Gen. K103N Y181C) was 1.6X fold. The “S.I. HCQ” value ([2]; Gen. K103N) was 8.7, the “Fen. HCQ (fold)” value ([2]; Gen. K103N) was 1.8X fold and the “S.I. HCQ” value ([2]; Gen. L100I K103N) was 6. The “Fen. HCQ (fold)” value ([2]; Gen. L100I K103N) was 2.1X fold, the “S.I. HCQ” value ([2]; Gen. Y181C) was 8.7 and the “Fen. HCQ (fold)” value ([2]; Gen. Y181C) was 1X fold. For the same molecule, the EC50 [3, 12] was 3500 nM, the EC50 ([3]; Gen. K65R F116Y Q151M) was 3000 nM and the EC50 ([3]; Gen. M41I T69SSS T215Y) was 2500 nM. For the same molecule, the EC50 ([3]; Gen. T69SSS T215Y) was 3000 nM, the EC50 ([3]; Gen. V75I F77L F116Y Q151M) was 3000 nM and the “S.I. HCQ” value [3, 12] was 3.3. The “Fen. HCQ (fold)” value [3, 12] was 2.3X fold, the “S.I. HCQ” value ([3]; Gen. K65R F116Y Q151M) was 3.3 and the “Fen. HCQ (fold)” value ([3]; Gen. K65R F116Y Q151M) was 2.2X fold. The “S.I. HCQ” value ([3]; Gen. M41I T69SSS T215Y) was 3.6, the “Fen. HCQ (fold)” value ([3]; Gen. M41I T69SSS T215Y) was 1.6X fold and the “S.I. HCQ” value ([3]; Gen. T69SSS T215Y) was 3.3. The “Fen. HCQ (fold)” value ([3]; Gen. T69SSS T215Y) was 2X fold, the “S.I. HCQ” value ([3]; Gen. V75I F77L F116Y Q151M) was 4 and the “Fen. HCQ (fold)” value ([3]; Gen. V75I F77L F116Y Q151M) was 2X fold. For the same molecule, the EC50 ([4]; PBMC, Gen. G48V V82A, read-out: E.C.50 HCQ) was 2.8 µM, the EC50 ([4]; PBMC, Gen. I84V L90M, read-out: E.C.50 HCQ) was 1.8 µM and the EC50 ([4]; PBMC, Gen. K20R E35D M36I I54V V82T, read-out: E.C.50 HCQ) was 2.2 µM. The EC50 ([4]; PBMC, Gen. V82F L90M, read-out: E.C.50 HCQ) was 3.3 µM, the EC50 ([4]; read-out: E.C.50 HCQ (uM), PBMC, Gen. L10R M46I L63P V82T) was 1.8 µM and the “S.I. HCQ” value ([4]; PBMC, Gen. G48V V82A) was 3. For the same molecule, the “Fen. HCQ (fold)” value ([4]; PBMC, Gen. G48V V82A) was 1.5X fold, the “S.I. HCQ” value ([4]; PBMC, Gen. I84V L90M) was 5.5 and the “Fen. HCQ (fold)” value ([4]; PBMC, Gen. I84V L90M) was 1X fold. For the same molecule, the “S.I. HCQ” value [4, 13] was 4.5, the “Fen. HCQ (fold)” value [4, 13] was 1.2X fold and the “S.I. HCQ” value ([4]; PBMC, Gen. L10R M46I L63P V82T) was 5. The “Fen. HCQ (fold)” value ([4]; PBMC, Gen. L10R M46I L63P V82T) was 0.8X fold, the “S.I. HCQ” value ([4]; PBMC, Gen. V82F L90M) was 2.5 and the “Fen. HCQ (fold)” value ([4]; PBMC, Gen. V82F L90M) was 1.7X fold. The EC50 [5] was 1500 to 3500 nM, the EC50 ([6]; Gen. K65R L74V M184V) was 1500 nM and the EC50 [6, 14] was 2200 nM. For the same molecule, the EC50 ([6]; Gen. L74V M184F) was 2200 nM, the EC50 ([6]; Gen. L74V Y115F M184V) was 2500 nM and the EC50 [6, 15] was 1800 nM. The “S.I. HCQ” value ([6]; Gen. K65R L74V M184V) was 6, the “Fen. HCQ (fold)” value ([6]; Gen. K65R L74V M184V) was 1X fold and the “S.I. HCQ” value [6, 14] was 4. For the same molecule, the “Fen. HCQ (fold)” value [6, 14] was 1.4X fold, the “S.I. HCQ” value ([6]; Gen. L74V M184F) was 4 and the “Fen. HCQ (fold)” value ([6]; Gen. L74V M184F) was 1.4X fold. For the same molecule, the “S.I. HCQ” value ([6]; Gen. L74V Y115F M184V) was 3.6, the “Fen. HCQ (fold)” value ([6]; Gen. L74V Y115F M184V) was 1.3X fold and the “S.I. HCQ” value [6, 15] was 5.5. The “Fen. HCQ (fold)” value [6, 15] was 1.2X fold.

Source: patent US20040006103A1, “Use of chloroquine, hydroxychloroquine and 4 amino-quinolinic derivatives to obtain a drug for the anti retroviral therapy, active towards HIV sensitive strains and towards HIV strains which are resistant to both nucleosidic and non-nucleosidic reverse transcriptase inhibitors and to proteases …” (VALPHARMA S.A., priority 2002, published 2004)
